# Laboratory results as given in patent US9211310B2, “Use of a Chinese medicine composition in preparing medicaments for treating secondary prevention of myocardial infarction” (TASLY PHARMACEUTICAL GROUP CO., LTD, priority 2010, dated 2015).
# Tested on: patients after acute myocardial infarction
# Test: Life quality, Seattle Angina Questionnaire (SAQ), same clinical trial
# Assay type: in vivo, human
# Settings: FAS, Follow-up
# From the text: 3508 patients who were in accordance with the diagnostic standards of AMI for 28 days to 2 years and differentiated as Qi deficiency and blood stagnation syndrome by TCM were studied. 0.5 g Chinese medicine composition prepared by the method of EXAMPLE 1 (Coded as QSYQ) was administrated half an hour after meal, 3 times per day.
# There were 19 questions in the Seattle angina questionnaire (SAQ), including 5 parts: physical limitation (PL), anginal stability (AS), anginal frequency (AF), treatment satisfaction (TS) and disease perception (DP). After being given necessary explanation by doctors, the questions were answered independently by patients.
# They included the overall survival time, angina pectoris score, TCM symptom score and life quality score, where angina pectoris score, TCM symptom score and life quality score were evaluated at randomization, in 1st, 3rd, 6th, 9th, 12th month after treatment and 18th month after follow-up.
# All evaluation results of SAQ were described during the period of observation, and Wilcoxon rank sum test was used for inter-group comparison.
# The evaluation results in the SAQ were depicted in different observations, and inter-group comparison was tested by Wilcoxon Rank-sum test.
# [1] = second line headed Not limited (r60)
structure (smiles),measurement,setting,value
"CC(=O)Oc1ccccc1C(=O)O [Control group, aspirine]","SAQ 7th question, Mostly satisfied: number of patients",,908
same,"SAQ 7th question, Partly satisfied: % of patients",,(6.68%)
same,"SAQ 7th question, Partly satisfied: number of patients",,97
same,"SAQ Question 1-1 Mildly limited, number of patients",,6
same,"SAQ Question 1-1 Mildly limited, percent of patients",,(0.42%)
same,"SAQ Question 1-1 Moderately limited, number of patients",,1
same,"SAQ Question 1-1 Moderately limited, percent of patients",,(0.07%)
same,"SAQ Question 1-1 Not limited, number of patients",,1386
same,"SAQ Question 1-1 Not limited, percent of patients",,(95.98%)
same,"SAQ Question 1-1 Other reasons, number of patients",,5
same,"SAQ Question 1-1 Other reasons, percent of patients",,(0.35%)
same,"SAQ Question 1-1 Severely limited, number of patients",,1
same,"SAQ Question 1-1 Severely limited, percent of patients",,(0.07%)
same,"SAQ Question 1-1 Slightly limited, number of patients",,45
same,"SAQ Question 1-1 Slightly limited, percent of patients",,(3.12%)
same,"SAQ Question 1-2 Mildly limited, number of patients",,8
same,"SAQ Question 1-2 Mildly limited, percent of patients",,(0.55%)
same,"SAQ Question 1-2 Moderately limited, number of patients",,0
same,"SAQ Question 1-2 Moderately limited, percent of patients",,(0.00%)
same,"SAQ Question 1-2 Not limited, number of patients",,1370
same,"SAQ Question 1-2 Not limited, percent of patients",,(94.88%)
same,"SAQ Question 1-2 Severely limited, number of patients",,2
same,"SAQ Question 1-2 Severely limited, percent of patients",,(0.14%)
same,"SAQ Question 1-2 Slightly limited, number of patients",,57
same,"SAQ Question 1-2 Slightly limited, percent of patients",,(3.95%)
same,"SAQ Question 1-6: Mildly limited, patients (%)",,(11.47%)
same,"SAQ Question 1-6: Moderately limited, patients (%)",,(9.24%)
same,"SAQ Question 1-6: Not limited, patients (%)",,(42.11%)
same,"SAQ Question 1-6: Other reasons, patients (%)",,(0.83%)
same,"SAQ Question 1-6: Severely limited, patients (%)",,(2.22%)
same,"SAQ Question 1-6: Slightly limited, patients (%)",,(34.12%)
same,"SAQ Question 1-7: Mildly limited, patients (%)",,(22.01%)
same,"SAQ Question 1-7: Moderately limited, patients (%)",,(6.75%)
same,"SAQ Question 1-7: Not limited, patients (%)",,(22.08%)
same,"SAQ Question 1-7: Other reasons, patients (%)",,(2.53%)
same,"SAQ Question 1-7: Severely limited, patients (%)",,(11.67%)
same,"SAQ Question 1-7: Slightly limited, patients (%)",,(34.95%)
same,"SAQ Question 1-8: Mildly limited, patients (%)",,(25.02%)
same,"SAQ Question 1-8: Moderately limited, patients (%)",,(11.91%)
same,"SAQ Question 1-8: Not limited, patients (%)",,(15.02%)
same,"SAQ Question 1-8: Other reasons, patients (%)",,(3.19%)
same,"SAQ Question 1-8: Severely limited, patients (%)",,(14.74%)
same,"SAQ Question 1-8: Slightly limited, patients (%)",,(30.12%)
same,"SAQ Question 1-2 Not limited, number of patients",[1],7
same,"SAQ Question 1-2 Not limited, percent of patients",[1],(0.48%)
same,"SAQ 2nd question: Clearly increased, % of cases",,(0.21%)
same,"SAQ 2nd question: Clearly increased, cases",,3
same,"SAQ 2nd question: Clearly reduced, % of cases",,(27.82%)
same,"SAQ 2nd question: Clearly reduced, cases",,402
same,"SAQ 2nd question: Same, % of cases",,(39.24%)
same,"SAQ 2nd question: Same, cases",,567
same,"SAQ 2nd question: Slightly increased, % of cases",,(7.40%)
same,"SAQ 2nd question: Slightly increased, cases",,107
same,"SAQ 2nd question: Slightly reduced, % of cases",,(25.33%)
same,"SAQ 2nd question: Slightly reduced, cases",,366
same,"SAQ 3rd question: 1-2 times per week, % of cases",,(25.33%)
same,"SAQ 3rd question: 1-2 times per week, cases",,366
same,"SAQ 3rd question: 1-3 times per day, % of cases",,(7.40%)
same,"SAQ 3rd question: 1-3 times per day, cases",,107
same,"SAQ 3rd question: <1 time per week, % of cases",,(27.82%)
same,"SAQ 3rd question: <1 time per week, cases",,402
same,"SAQ 3rd question: No onset, % of cases",,(0.00%)
same,"SAQ 3rd question: No onset, cases",,0
same,"SAQ 3rd question: ≧3 times per week, % of cases",,(39.24%)
same,"SAQ 3rd question: ≧3 times per week, cases",,567
same,"SAQ 3rd question: ≧4 times per day, % of cases",,(0.21%)
same,"SAQ 3rd question: ≧4 times per day, cases",,3
same,"SAQ Question 1-3: Mildly limited, number of patients",,30
same,"SAQ Question 1-3: Mildly limited, percent of patients",,(2.08%)
same,"SAQ Question 1-3: Moderately limited, number of patients",,6
same,"SAQ Question 1-3: Moderately limited, percent of patients",,(0.42%)
same,"SAQ Question 1-3: Not limited, number of patients",,1206
same,"SAQ Question 1-3: Not limited, percent of patients",,(83.58%)
same,"SAQ Question 1-3: Other reasons, number of patients",,9
same,"SAQ Question 1-3: Other reasons, percent of patients",,(0.62%)
same,"SAQ Question 1-3: Severely limited, number of patients",,2
same,"SAQ Question 1-3: Severely limited, percent of patients",,(0.14%)
